{"source": "patent US12433875B2", "about": "“(R)-4-(1-(6-(4-(trifluoromethyl)benzyl)-6-azaspiro[2.5]octane-5-carboxamido)-cyclopropyl) benzoic acid or its salt also in polymorphic form a for use in the prevention of heterotopic ossification” (ROTTAPHARM BIOTECH S.R.L., priority 2019, dated 2025)", "tested_on": "Male DBA/1 mice (CIA model)", "assay": "CIA in mice, histology of heterotopic bone formation", "format": "in vivo", "details": "30 mg/kg (lowest tested dose) once daily for 10 days, FIG. 9", "description": "CIA in mice is another very popular translational model to mimic human arthritis. […] Male DBA/1 mice were immunized by intradermal injection at the base of the tail with an emulsion of 200 μg of bCII in CFA containing 3 mg/ml Mycobacterium tuberculosis. Non-immunized mice served as the negative control of disease. Animals were monitored by visual inspection for appearance of peripheral edema. […] Upon onset, animals were recruited and randomized. Recruitment was given a cut-off at day 40. Upon recruitment, arthritis clinical score was assigned, and edema was measured via caliper. Mice were randomized into the following groups: vehicle, 30 mg/kg the form A of the sodium salt of (R)-4-(1-(6-(4-(trifluoromethyl)benzyl)-6-azaspiro[2.5]octane-5-carboxamido)cyclopropyl)benzoic acid, 60 mg/kg the form A of the sodium salt of (R)-4-(1-(6-(4-(trifluoromethyl)benzyl)-6-azaspiro[2.5]octane-5-carboxamido)cyclopropyl)benzoic acid and 60 mg/kg naproxen. Animals received the test drugs once daily for 10 days. Histology was performed as described for rats.", "data": [{"compound": "O=C([O-])c1ccc(C2(NC(=O)[C@H]3CC4(CCN3Cc3ccc(C(F)(F)F)cc3)CC4)CC2)cc1.[Na+]", "note": "[Form A, sodium (R)-4-(1-(6-(4-(trifluoromethyl)benzyl)-6-azaspiro[2.5]octane-5-carboxamido)cyclopropyl)benzoate]", "values": [{"measurement": "pathological bone formation (histology)", "value": "completely abrogated in almost all animals"}]}]}
